Assay results: patent publication US20160175802A1, “METHOD FOR MAKING A GAS FROM AN AQUEOUS FLUID,PRODUCT OF THE METHOD, AND APPARATUS THERFOR” (priority 2007, published 2016)

Key:
[1] = test system: goldfish; test: Fish growth in home aquariums; format: in vivo; conditions: SG Gas bubbled into aquarium for thirty days vs air
Description: Fish Growth: Two home aquariums were used to hold two respective groups of goldfish. SG Gas was bubbled into one aquarium and the second with air for a period of thirty days.

[2] = pH test; format: physicochemical; conditions: distilled water infused with SG Gas (distilled water pH 6.8)
[3] = Total Dissolved Solids after infusion; format: physicochemical; conditions: after infusion of SG Gas into distilled water for approximately 11 minutes (start 0.33 ppm)
Description: The resulting ionized or polarized water (“SG Gas-infused Water”) clings longer to a magnet when compared to that of regular water. Absorption over time or saturation graphs to monitor changes in the water properties infused with SG Gas including capacitance levels may be prepared. […] Other measurement: Total Dissolved Solids (TDS) dropped from a start of 0.33 ppm in untreated distilled water to a finish of 0.17 ppm after infusion of SG Gas into distilled water for a period of approximately 11 minutes. A Fluke 189True RMS Multimeter was used to measure drop in capacitance.

[4] = Storage of SG Gas in water; format: physicochemical; conditions: polarized water with SG Gas treatment
Description: Storage of SG Gas in Water: The resulting polarized water with SG Gas treatment remains stable and can be stored for 2 years or more. The actual maximum storage time has yet to be observed but in theory, SG Gas should remain permanently stable in the water.

[5] = SG Gas under pressure; format: physicochemical
Description: In an exemplary procedure for compression, SG Gas is discharged from the apparatus into a hose with a compressor attached. We use a Whirlwind Compressor, Model 2200-2 HPE, manufactured by High Pressure Eng. Co. Inc. A canister with pressure gauges is used to fill the chamber with SG Gas, using a hose to transport the SG Gas from the apparatus and compressor into the canister. We use an empty oxygen tank that has been vacuumed to remove any residual oxygen and water. The empty and vacuumed oxygen tank with pressure valve has a manufacturer name of White Martins, ABRE with dimensions of 23″ diameter and 19″ height. SG Gas is placed under pressure in the compression chamber up to and beyond 1,000 psi. for storage of SG Gas.
Analytical Testing and Observations of SG Gas Under pressure Maximum Pressure: SG Gas imploded when pressures exceeded 1,600 psi.
Safe Pressurization: SG Gas remains safe and stable at pressures around 1,000 psi for over 30 days. SG Gas should remain stable under pressure indefinitely, at least for a sufficient period of time to allow said gas to be utilized at time 30-60 days after generation.

Substance: hydroxyhydrogen [SG Gas]
- algae growth in aquarium tank [1]: less algae growth
- growth of goldfish compared with air-aerated aquarium [1]: at least 15%
- pH [2]: 7.6
- Total Dissolved Solids (TDS) [3]: 0.17 ppm
- storage time over which water remains stable [4]: ≥ 2 years
- Maximum Pressure: pressure above which SG Gas imploded [5]: exceeded 1,600 psi
- time safe and stable under pressure ([5]; pressures around 1,000 psi): over 30 days
